According to patent publication US6451828B1, “Selective inhibition of glutaminase by bis-thiadiazoles” (priority 2000, dated 2002):

Target: T1, human kidney glutaminase (Homo sapiens, UniProt O94925)
T1 construct: made in house; host or cells: SF9 insect cells (alternatively HEK human kidney cells); cell lysate
T1 sequence (O94925 55-669): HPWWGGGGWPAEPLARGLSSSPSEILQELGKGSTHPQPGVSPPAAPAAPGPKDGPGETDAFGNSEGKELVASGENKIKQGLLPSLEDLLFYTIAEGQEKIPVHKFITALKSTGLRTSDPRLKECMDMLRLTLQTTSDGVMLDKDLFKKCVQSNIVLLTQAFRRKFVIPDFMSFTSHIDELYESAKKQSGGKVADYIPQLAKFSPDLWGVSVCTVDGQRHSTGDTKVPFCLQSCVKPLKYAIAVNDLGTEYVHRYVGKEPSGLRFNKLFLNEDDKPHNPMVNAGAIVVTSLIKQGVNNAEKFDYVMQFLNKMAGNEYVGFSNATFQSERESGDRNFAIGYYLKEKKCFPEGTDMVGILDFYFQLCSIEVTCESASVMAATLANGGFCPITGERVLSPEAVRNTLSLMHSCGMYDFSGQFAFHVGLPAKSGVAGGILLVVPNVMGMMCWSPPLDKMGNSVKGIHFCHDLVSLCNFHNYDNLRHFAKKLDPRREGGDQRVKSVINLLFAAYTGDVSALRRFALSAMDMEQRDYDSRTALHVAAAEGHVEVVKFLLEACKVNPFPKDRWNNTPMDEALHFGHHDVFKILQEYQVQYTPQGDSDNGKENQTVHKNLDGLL
Test: Glutaminase inhibition: cell free assay
Assay type: biochemical
Settings: not given
Experimental: Compounds of formula I were tested for inhibition of human kidney glutaminase as described in Example 2.
Glutaminase Inhibition: Cell Free Assay
Glutaminase gene-transfected SF9 cells were collected in a 50-mL polypropylene conical tube by centrifugation at 500×g for 10 min (Eppendorf Centrifuge 5810R, F34-6-38 rotor). The supernatant was discarded, and the cell pellet was stored at −80° C. For preparation of the lysate, the cells were thawed on ice and resuspended by pipetting in 0.8 mL cold lysis buffer with 0.5 mM 4-(2-aminoethyl)- benzenesulfonyl fluoride (AEBSF), a serine protease inhibitor. The suspension was stored in ice for 20 min, then subjected to two freeze-thaw cycles (liquid nitrogen followed by a room temperature water bath).
The volume of the cell homogenate was measured, and 1/3 volume of 1 M sucrose was added, to give a final concentration of 0.25 M sucrose. Aliquots 100 μL in volume were placed in 1.5 mL microtubes and stored at −80° C.
Alternatively, HEK (human kidney) cells were used. The medium was removed by aspiration, 5 mL PBS/1 mM EDTA was added, and the culture was incubate for 3 min to allow cells to detach. The cells were collected in a 50-mL conical tube using Eppendorf Centrifuge 5810R, F34-6-38 rotor, and spun at 200×g for 5 min. The supernatant was discarded, and the cell pellet was resuspended pipetting (approximately 0.12 g wet weight) in 0.3 mL lysis buffer with 0.5 mM AEBSF. The tube was left in ice for 20 min. […] subjected to two freeze-thaw cycles as described above. Aliquots 100 μL in volume were placed in 1.5 mL microtubes and stored at −80° C.
The activity of the enzyme was determined colorimetrically. One unit of enzyme activity is defined as the amount of enzyme required to generate net OD 540nm=0.6 in a total reaction volume of 220 μL in one hour at room temperature.
Assay plates were prepared containing 2 μL test compound in DMSO/well. The enzyme was diluted to 1 unit (liver) or 0.8 unit (kidney)/100 μL in glutaminase assay buffer, and 100 μl diluted enzyme was added to each well of the assay plate by Multidrop (Labsystems). The contents were mixed by shaking at full speed for 1 min on TiterMix 100 (Brinkmann). The plates were preincubated at room temperature (RT) for 20 min to allow binding of test compounds to glutaminase, and 50 μL glutamine solution (7 mM in assay buffer) was added to each well by Multidrop. The contents were shaken at full speed for 30 sec on TiterMix 100 (Brinkmann), and the plates were then incubated at RT for 60 min (liver) or 90 min (kidney). To stop the reactions, 20 μL HCl (0.3 N) was added to each well by Multidrop and mixed immediately by shaking for 30 sec on TiterMix 100.
For quantification, glutamate (formed by glutaminase-catalyzed hydrolysis of glutamine) is oxidized to 2-oxoglutarate by a second enzyme, glutamate dehydrogenase (GDH), with the concomitant production of the reduced form of nicotinamide adenine dinucleotide (NADH). Reduction of nitro blue tetrazolium (NBT) in the assay solution by NADH, catalyzed by phenazine methosulphate (PMS), results in the formation of a blue-purple formazan. The absorption of formazan at 540 nm is linearly proportional to the concentration of glutamate up to 200 μM.
NBT/GDH reagent (50 μl) was added to each well by Multidrop and mixed by shaking for 30 sec on TiterMix 100, and the plates were incubated at RT for 20 min to allow color formation by the GDH reaction. Glutamate concentration was determined from formazan concentration as determined by reading OD540 nm on a SpectraMax 340.
`O=C(Nc1nnc(CCSCCc2nnc(NC(=O)c3ccccc3)s2)s1)c1ccccc1` [SNX-1830] gave an IC50 of 1060 nM.
With `Cc1cccc(C(=O)Nc2nnc(CCSCCc3nnc(NC(=O)c4cccc(C)c4)s3)s2)c1` [SNX-1831] the IC50 was 1130 nM.
With `COc1ccc(C(=O)Nc2nnc(CCSCCc3nnc(NC(=O)c4ccc(OC)cc4)s3)s2)cc1` [SNX-1832] the IC50 was 460 nM.
With `O=C(Nc1nnc(CCSCCc2nnc(NC(=O)c3ccco3)s2)s1)c1ccco1` [SNX-1836] the IC50 was 1120 nM.
`O=C(Nc1nnc(CCSCCc2nnc(NC(=O)c3cccs3)s2)s1)c1cccs1` [SNX-1837] gave an IC50 of 390 nM.
`CC(C)(C)C(=O)Nc1nnc(CCSCCc2nnc(NC(=O)C(C)(C)C)s2)s1` [SNX-1851] gave an IC50 of 1650 nM.
`CCOC(=O)Nc1nnc(CCSCCc2nnc(NC(=O)OCC)s2)s1` [SNX-1852] gave an IC50 of 1780 nM.
With `COc1ccccc1C(=O)Nc1nnc(CCSCCc2nnc(NC(=O)c3ccccc3OC)s2)s1` [SNX-1855] the IC50 was 4900 nM.

System: isolated neurons
Test: not given
Settings: Dugan et al., 1995; read-out: IC50 for toxicity on isolated neurons; cited from earlier work
For `N[C@@H](CCC(=O)O)C(=O)O` [glutamate], the IC50 is given as 5000 to 10000 nM.

System: microglia (BV-2) cells
Test: Inhibition of microglial glutamate secretion
Assay type: cell-based
Settings: not given
Experimental: As described in Wood, glutamate efflux from microglia is dependent on the presence of added external glutamine. […] Therefore, the concentration of glutamate in the culture medium can be used directly as a measure of glutamate production by these cells.
In assaying the invention compounds, microglia (BV-2) cells were cultured using standard methods, as described in Example 4. On the day of the experiment, cells were incubated in glutamine free medium for 1 to 1.5 hours, then glutamine and test compounds, dissolved in glutamine free medium, were added. Aliquots were removed at 2 h and 4 h for glutamate analysis.
Inhibition of Microglial Glutamate Secretion
BV-2 cells were cultured in 24 well plates using Dulbeccos minimal essential medium containing 10% heat inactivated fetal bovine serum, and grown to 70-80% confluency before use. On the day of the experiment, cells were placed in glutamine free medium for 1 to 1.5 hours. […] This solution was used to replace one half of the 0.5 mL culture medium volume at the end of the glutamine free incubation. Aliquots of 10 μL medium were removed at 2 h and 4 h and placed in 96 well microtiter plates with 90 μL DMF/water (1:9) for glutamate analysis.
For `[N-]=[N+]=CC(=O)CC[C@H](N)C(=O)O` [DON, 6-diazo-5-oxo-L-norleucine, reference compound], the “Glutamine dependent glutamate efflux from microglia” value was “inhibited”.
